The source of these data is patent US20200003756A1, “METHOD FOR OBSERVING SEBACEOUS GLAND” (MANDOM CORPORATION, priority 2017, published 2020).

The test system of this experiment is sebaceous-gland-structure A. Description: Degree of sebum production from three-dimensional image analysis of outermost layer (Example 4). Type of experiment: cell-based. Particulars: linoleic acid 1×10^−4 M, 24 hours. As for the experimental part:
Linoleic acid and phytic acid as test substances were added to the mixed medium obtained in Preparation Example 1 (test sample A) so that the concentration of linoleic acid was 1×10^−4M and so that the concentration of the test sample was 100 μM, to obtain a test sample E. One milliliter of the test sample A was added to each well of a 24-well plate. Text, the sebaceous-gland-structure A obtained in Preparation Example 6 was cultured in a suspended state in the test sample A contained in each well of the 24-well plate in the presence of 5% by volume carbon dioxide at 37° C. for 24 hours, to contact the sebaceous-gland-structure A with the test sample A (Experiment number 10). In addition, the sebaceous-gland-structure A was contacted with the test sample B (Experiment number 11) or the test sample E (Experiment number 12) in the same manner as in Experiment, number 10 except that in Experiment number 10, the test sample B obtained in Example 1(1) (Experiment number 11) or the test sample E obtained in Example 4(1) (Experiment number 12) was used in place of the test sample A. Each of observation samples of Experiment numbers 10 to 12 was obtained in the same manner as in Preparation Example 7 except that in Preparation Example 7, the cultured sebaceous-gland-structure A obtained in Example 4(2) (Experiment numbers 10 to 12) was used in place of the cultured sebaceous-gland-structure A obtained in Preparation Example 6. The appearance of the sebaceous-gland-structure A contained in the observation sample of each of Experiment numbers 10 to 12 obtained in Example 4(3) was observed under a confocal microscope by using image analysis software (manufactured b Bitplane AG, trade name: Imaris), thereby giving three-dimensional image of the sebaceous-gland-structure A. Next, information of the outermost layer of the sebaceous-gland-structure A was extracted from the data of the resulting three-dimensional image by using image analysis software (manufactured by Bitplane AG, trade name: Imaris). Thereafter, the whole volume of the cells present in the outermost layer was calculated from the extracted information, and thereafter the sebum droplets contained in the outermost layer were counted. Using the whole volume of the cells present in the outermost layer and the number of lipid droplets of the sebum the degree of sebum production was calculated according to Formula (I): [Degree of Sebum production]=[Number of lipid droplets of sebum]/[Whole volume of cells present in outermost layer] (I)

In the case of `CCCCC/C=C\C/C=C\CCCCCCCC(=O)O` [linoleic acid, Linoleic acid], under “conclusion from FIG. 11”, the sebum production-regulating action entry is given as “sebum production-promoting action”. Besides, the “degree of sebum production (number of lipid droplets of sebum / whole volume of cells present in outermost layer)” value (test sample B, compared with test sample A not containing linoleic acid, FIG. 11) was “higher”.
